Measured values reported in article PMC2254147, “Novel Triazine JPC-2067-B Inhibits Toxoplasma gondii In Vitro and In Vivo” (PLoS Neglected Tropical Diseases, 2008).

System: tester strains TA97, TA98, TA100, TA102 and TA1535
Test: Ames Test with and without microsomal activation
Method: A 42-day toxicology study in CD-1 mice at doses up to 98 mg/kg evaluating well-being, weight gain, and histopathology was performed. […] 7.5 mg/kg was established as the NOAEL (No Observed Adverse Effect Level). JPC-2056 and JPC-2067 were assayed in the Ames Test with and without microsomal activation with tester strains TA97, TA98, TA100, TA102 and TA1535.

CC1(C)N=C(N)N=C(N)N1OCCCOc1ccc(OC(F)(F)F)cc1Cl [JPC-2067-B, 4,6-diamino-1,2-dihydro-2,2-dimethyl-1-(3′(2-chloro-, 4-trifluoromethoxyphenoxy)propyloxy)-1,3,5-triazine]
Ames Test, with and without microsomal activation: No activity | Ames w/o Activation: Not Active ^* | Ames with Activation: Not Active ^*
